Experimental data taken from US4454136A, “Substituted benzopyranotriazoles and antiallergic use” (Beecham Group Limited, priority 1980, dated 1984).

System: rat PCA
Assay: Passive Cutaneous Anaphylaxis (PCA) in rats
Assay type: in vivo, Male Wistar rats
Conditions: sc
Protocol: Serum containing heat-labile homocytotropic antibody was raised in rats to crystallized ovalbumin XOA by the method of Mota (I. Mota, Immunology, 7, 681, (1964)) using Bordettela pertussis vaccine as adjuvant.
Passive cutaneous anaphylaxis (PCA) was carried out by a method based on that of Ovary and Bier, (A. Ovary and O. G. Bier, Proc. Soc. Exp. Bio. Med 81, 584, (1952)) as modified by Goose and Blair. (Immunology 16, 749 (1969)).
Male Wistar rats of 250-300 g were give 0.1 ml of each of six twofold serial dilutions of pooled antiserum in 0.9% saline injected intradermally into separate sites on their shaved backs. Later (72 hours) the animals were challenged by intravenous injection of 0.3 ml of a 1% solution of ovalbumin in an isotonic solution of saline buffered with 0.05 M, pH 7.2, Sorenson Buffer (PBS), mixed with 0.2 ml of a 5% solution of Pontamine Sky Blue (6BX C.I. 24410, Raymond A. Lamb, London) in isotonic saline. The rats were killed after 20 minutes and the diameter of the blue wheals at the antibody injection sites were measured on the outer surface of the skin. The starting dilution of the serum was adjusted so that there was no response, after challenge, at the injection site of the highest dilution and a maximum response at the lowest dilutions. Typically six twofold serial dilutions of the serum from 1/4 to 1/128 were used.
Compounds were tested for their ability to reduce the diameter of the wheals at those intradermal sites which in control animals gave less than maximum response. Each dose of the compound was administered to six rats at a measured time prior to intravenous challenge with ovalbumin. Control groups of six rats were given the same volume (0.2 ml: 100 g^-1) of carrier fluid at the same time prior to the challenge.
The results were calculated as follows: % inhibition of PCA=100 (1-a/b) where a=the sum of the diameters of the wheals produced in the test animal at the sites of antibody dilutions as used in control groups and b=the mean sum of the diameters of the wheals produced in the control groups of animals at those antibody sites where at least five out of six of the animals gave less than maximum response. A typical variation in the control group of animals was SEM±6%.
*Time between administration of compound and antigen challenge.

Row | Compound | % inhibition of rat PCA (PBS with NaHCO3, 10' before antigen challenge, 5 mg/kg) [%] | % inhibition of rat PCA (PBS with NaHCO3, 10' before antigen challenge, 20 mg/kg) [%] | % inhibition of rat PCA (PBS with NaHCO3, 30' before antigen challenge, 5 mg/kg) [%] | % inhibition of rat PCA (PBS with NaHCO3, 30' before antigen challenge, 20 mg/kg) [%] | % inhibition of rat PCA (PBS with NaHCO3, 10' before antigen challenge, 10 mg/kg) [%] | % inhibition of rat PCA (PBS with NaHCO3, 30' before antigen challenge, 10 mg/kg) [%]
1 | Cc1c(OS(C)(=O)=O)ccc2c(=O)c3[nH]nnc3oc12 [Example 1e, 6-Mesyloxy-5-methyl-9-oxo-1H,9H-benzopyran o[2,3-d]-v-triazole] | 42 | 57 | 18 | 41 |  | 
2 | Cc1c(O)ccc2c(=O)c3[nH]nnc3oc12 [Example 1f, 6-Hydroxy-5-methyl-9-oxo-1H,9H-benzopyrano[2,3-d]-v-triazole] |  |  |  |  | 32 | 19
